In patent US20030220521A1, “Renal-selective prodrugs for control of renal sympathetic nerve activity in the treatment of hypertension” (G.D. Searle & Co., priority 1989, published 2003):

Tested on: gamma-glutamyl transpeptidase and acylase I
Assay: Assay IV: metabolism of conjugate by purified transpeptidase and acylase
Assay type: in vitro ADME
Description: […] The resulting suspension, diluted with buffer, was incubated in the presence of the Ex. #859 conjugate at 37° C. At various times aliquots were removed, deproteinized with an equal volume of cold trichloroacetic acid (25%) and centrifuged. The supernatant was injected onto a C-18 reverse-phase HPLC column and eluted isocratically with a mixture of acetonitrile and water (20:80 v/v) containing trifluoroacetic acid (0.05%). Eluted compounds were monitored by absorbance at 254 nm and compared to standards run under identical conditions. In the assay using pure kidney enzyme homogenate, the Ex. #859 conjugate was also incubated under the same conditions as described except that 5 mg of gamma-glutamyl transpeptidase (Sigma, 23 units/mg) and 10 mg of acylase I (Sigma, 4800 units/mg) were added in place of the homogenate. Analysis by HPLC was performed in a manner identical to that used for the kidney homogenate experiment.

## CCCCc1ccc(C(=O)NNC(=O)CCC(NC(C)=O)C(=O)O)nc1 [Ex. #859, N-acetyl-L-glutamic acid, 5-[(5-butyl-2-pyridinyl)-carbonyl]hydrazide]
3 h, pH 7.4
  Fusaric Acid formed from conjugate: 0.00 µg/mL
3 h, pH 8.1
  Fusaric Acid formed from conjugate: 0.00 µg/mL
24 h, pH 7.4
  Fusaric Acid formed from conjugate: 2.56 µg/mL
24 h, pH 8.1
  Fusaric Acid formed from conjugate: 1.12 µg/mL
72 h, pH 7.4
  Fusaric Acid formed from conjugate: 12.15 µg/mL
72 h, pH 8.1
  Fusaric Acid formed from conjugate: 4.46 µg/mL
96 h, pH 7.4
  Fusaric Acid formed from conjugate: 15.44 µg/mL
96 h, pH 8.1
  Fusaric Acid formed from conjugate: 5.22 µg/mL
120 h, pH 7.4
  Fusaric Acid formed from conjugate: 18.75 µg/mL
120 h, pH 8.1
  Fusaric Acid formed from conjugate: 6.55 µg/mL
Purified gamma-glutamyl transpeptidase and acylase I
  species present after incubation: only fusaric acid and the unreacted compound being present
